In brackets after ≈: the same amount, converted by molar mass. Like-named read-outs stand apart in the source and are kept apart here. Where a SMILES comes first, the peptide text is derived from it. Where no end group is shown, it is not given here. A value given as a limit tells only on which side of the number the result lay.

Here are results for three compounds from PMC9405102, “Targeted Modification and Structure-Activity Study of GL-29, an Analogue of the Antimicrobial Peptide Palustrin-2ISb” (Antibiotics, 2022).

Series [1] relates to E. faecalis (NCTC 12697). In kind it is cell-based, Enterococcus faecalis. As for the experimental part: The MBIC and MBEC assays were performed to measure the inhibition and eradication of bacterial biofilm in the presence of different concentrations of peptides. Gram-positive bacteria were inoculated in Luria–Bertani (LB) broth at 37 °C overnight whereas Gram-negative bacteria were inoculated in tryptic soy broth (TSB), and then sub-cultured until reaching the logarithmic growth phase by measuring the OD values at a wavelength of 550nm. For the MBIC assay, 99 µL of diluted bacterial suspension (5 × 10^5 CFU/mL) was mixed with 1 µL of prepared peptide solutions in the wells of a round-bottomed 96-well plate, achieving the final concentrations from 512 to 1 µM, and then incubated at 37 °C for 24 h in a shaking incubator at 200 revolutions per minute (rpm). After this, the plate was washed twice by PBS and fixed with methanol for 30 min. For MBEC assay, 100 µL of diluted bacterial suspension (5 × 10^5 CFU/mL) was seeded into a round-bottomed 96-well plate and incubated at 37 °C for 24 h in a shaking incubator at 200 rpm to obtain mature biofilm. After this, plates were washed twice by PBS and incubated with different concentrations of peptide solution from 512 to 1 µM at 37 °C for 24 h. Afterwards, the plate was washed twice with PBS and fixed with methanol for 30 min. Then, both MBIC and MBEC plates were stained by 130 μL of 0.1% (g/v) crystal violet solutions for 30 min and washed with PBS until no apparent staining was observed. Evaporating crystal violet stains were dissolved by 33% (v/v) acetic acid, and the absorbance values were measured by a Synergy HT Microplate Reader (BioTek, Minneapolis, MN, USA) set to 595 nm. The minimum concentration that inhibited the formation of biofilm was defined when compared to the negative control group, as the MBIC. The minimum concentration that eradicated the biofilm was defined, when compared to the negative control group, as the MBEC. The biofilm assays were performed in triplicate.

Series [2] concerns H838. The experiment in a line: MTT antiproliferative assay. In kind it is cell-based, human. As for the experimental part:
(§1) The proliferative inhibition effect of GL-29 and its analogues were assessed by MTT assay as described in a previous study. HaCaT cell line (human keratinocytes) and four cancer cell lines, U251MG (human glioblastoma astrocytoma cell line), HCT116 (human colon cancer cell line), H157 (human non-small lung cancer cell line) and H838 (human lung carcinoma cancer cell line), were used in this assay. A total of 8000 cells/per well were seeded in the 96-well plate for 24 h and then treated with peptides at the concentration from 100 μM to 100 nM for 24 h. In this assay, 1% Triton X-100 and PBS were set as a positive and negative control, respectively. After which, the formazan was dissolved in DMSO and the OD value was detected by use of a Synergy HT plate reader (BioTek, Minneapolis, MN, USA) at λ = 570 nm.
(§2) Data were analysed using Prism (Version 8.2.1; GraphPad Software, Inc, San Diego, CA, USA). Error bars in the graphs represented standard errors of means (SEM) of nine repeats from three independent tests. The statistical significance was calculated using two-way ANOVA and is indicated as ns (non-significant difference), * (p < 0.05), ** (p < 0.01), *** (p < 0.001), ****(p < 0.0001). The HC10, HC50 and IC50 values were calculated using the online tool AAT Bioquest (https://www.aatbio.com/index.html, accessed on 6 May 2022).
Background: Tetrazolium dyes change colour on reduction, which living cells bring about.

Series [3] concerns HCT116. As to the kind of experiment: MTT antiproliferative assay. In kind it is cell-based, human. Here is the method: as §1, §2
Series [4] has as its system U251MG. The experiment in a line: MTT antiproliferative assay. The format is cell-based, human. Here is the method:
as §1, §2

The test system of series [5] is horse erythrocytes. In kind it is cell-based. The conditions noted are these: red cells of horse, 2 h. As for the experimental part:
The haemolysis assays were performed by incubating prewashed erythrocyte suspension obtained from fresh defibrinated horse blood (TCS Biosciences Ltd., Buckingham, UK) with a range of peptides at final concentrations from 512 to 1 μM, for 2 h at 37 °C. The red cell suspensions were washed with phosphate-buffered saline (PBS) until the supernatant was clear and then diluted with PBS to form a 2% cell suspension. Peptides were 2-fold diluted by the 2% cell suspension to reach the final concentration range from 512 to 1 μM. The haemolysis of the cell suspensions with either 1% (v/v) Triton X-100 or PBS, were considered as positive controls and negative controls, respectively. After incubation, the extent of haemolysis was determined by measuring the absorbance of the supernatant from each sample at 570 nm with a Synergy HT plate reader (BioTek, USA).
as §2

Series [6] has as its system human keratinocyte cell line, HaCaT. The format is cell-based. The settings on record: 24 h. As for the experimental part:
as §1, §2

Series [7] concerns Staphylococcus aureus (S. aureus). The arrangement: method as in PMID 21911019. The conditions noted are these: cited from earlier work.
Series [8] deals with Escherichia coli (E. coli). On the set-up: method as in PMID 21911019. The conditions noted are these: cited from earlier work.
Series [9] deals with methicillin-resistant S. aureus (MRSA). The arrangement: method as in PMID 21911019. The settings on record: cited from earlier work.
Series [10] relates to C. albicans. On the set-up: method as in PMID 21911019. The conditions noted are these: C. albicans; cited from earlier work.
For series [11], the system named is H157. As to the kind of experiment: MTT antiproliferative assay. The settings on record: 24 h. The format is cell-based, human. As for the experimental part: as §1, §2
Series [12] deals with Galleria mellonella larvae (waxworms). As to the kind of experiment: Toxicity of peptide in larvae in vivo. The conditions noted are these: uninfected larvae. Here is the method:
In this assay, Galleria mellonella larvae (waxworms) (Livefood UK Ltd., Rooks Bridge, UK) were used as an infection model to investigate the antimicrobial potency of peptides against S. aureus, which was described in a previous study in detail (Yuan et al., 2019). The larvae, weights between 225 mg and 275 mg, were selected, and nine larvae were stored in a separate Petri dish as a group and they were divided into several groups. Then, 10 µL of the peptide solution at final concentrations of 8 µM and 16 µM, respectively, and 10 µL of PBS were injected into larvae to test the toxicity of peptides and PBS solution. Afterwards, 10 μL of the bacterial suspension in PBS (5 × 10^7 CFU/mL) were injected into larvae. All the infected larvae were ensured to be alive after 2 h of the injection, followed by the treatment with 10 μL of the peptide solution to reach final concentrations of 2, 4 and 8 μM, respectively. The negative control was treated with the same volume of PBS, and the positive control was dosed with the same volume of 20 mg/kg vancomycin (Sigma-Aldrich, UK). The number of living larvae was counted every 24 h for 5 days, except the first day of 12 h.

For GLWNSIKIA-NH2 [GL-9, GLWNSIKIA-NH2], the MBEC in [1] (biofilm eradication, E. faecalis (NCTC 12697)) was greater than 512 µM. In addition, the MBIC in series [1] (biofilm formation, E. faecalis (NCTC 12697)) was greater than 512 µM. Further, the “inhibition of proliferative activity” value in [2] (H838, 100 µM (highest concentration)) is 20–40%; in [3] (HCT116, 100 µM (highest concentration)), 20–40%; in series [4] (100 µM (highest concentration)) it was 20–40%.

The term HC50 denotes the concentration that lyses half of the red blood cells. As usually defined, the IC50 is the midpoint of a concentration-inhibition curve. For orientation: MIC means the smallest concentration in the dilution series that meets the test's criterion for growth inhibition. Consider `CC[C@H](C)[C@H](NC(=O)[C@H](CCCCN)NC(=O)[C@@H](NC(=O)[C@H](CO)NC(=O)[C@H](CC(N)=O)NC(=O)[C@H](Cc1c[nH]c2ccccc12)NC(=O)[C@H](CC(C)C)NC(=O)CN)[C@@H](C)CC)C(=O)N[C@@H](C)C(=O)NCC(=O)N[C@@H](CCCCN)C(=O)N[C@@H](CCCCN)C(=O)N[C@@H](CC(C)C)C(=O)N[C@@H](Cc1ccccc1)C(=O)N[C@H](C(=O)N[C@@H](CC(N)=O)C(=O)N[C@H](C(=O)N[C@@H](CC(C)C)C(=O)N[C@@H](CC(=O)O)C(=O)N[C@@H](CCCCN)C(=O)N[C@H](C(=O)N[C@@H](CCCNC(=N)N)C(=O)N[C@H]1CSSC[C@@H](C(=O)O)NC(=O)CNC(=O)CNC(=O)[C@H](C)NC(=O)[C@H](C(C)C)NC(=O)[C@H](CCCCN)NC1=O)[C@@H](C)CC)C(C)C)C(C)C` [GL-29] (HELM PEPTIDE1{G.L.W.N.S.I.K.I.A.G.K.K.L.F.V.N.V.L.D.K.I.R.C.K.V.A.G.G.C}$PEPTIDE1,PEPTIDE1,23:R3-29:R3$$$V2.0; N-terminus and C-terminus assumed; bridges inferred), for which the HC10 in series [5] worked out at 5.86 µM. The HC50 in series [5] was determined as 33.03 µM. For the same compound, the IC50 in [6] is 5.05 µM. Besides, the MBEC in series [1] (NCTC 12697, 24 h) was greater than 512 µM. The MBIC in [1] (NCTC 12697, 24 h) is 16 µM. The MIC in [7] was 6.3 µM (≈ 19.7 µg/mL); in series [8] it was 1.6 µM (≈ 5.01 µg/mL); in [9], 12.5 µM (≈ 39.1 µg/mL); in [10] it was 100 µM (≈ 313 µg/mL).

For GLWNSIKIAGKKLFVNVLDKIR-NH2 [GL-22], the HC10 in series [5] is 87.304 µM. For the same compound, the concentration for 50% haemolysis (HC50) in series [5] came to 254.11 µM. The IC50 in [6] is 38.9 µM; in series [11], 9.36 µM; in series [2] (H838, MTT, 24 h) it was 25.2 µM; in series [3] (HCT116, MTT, 24 h), 129 µM; in series [4] (MTT, 24 h), 40.6 µM. For the same compound, in series [1] (NCTC 12697, 24 h), the MBEC is greater than 512 µM. Further, in series [1] (NCTC 12697, 24 h), the MBIC is 32 µM. Besides, the toxicity against larvae entry in series [12] (2 × MIC (20 mg/kg)) is recorded as “no toxicity”; in [12] (4 × MIC (40 mg/kg)) it was “high toxicity”.
